Experimental data reported in patent publication US6642238B2, “Oxazolidinone thioamides with piperazine amide substituents” (Pharmacia and Upjohn Company, priority 2000, dated 2003).
≈ marks a conversion by molar mass, not a printed value.

Key:
[1] = tested on: Streptococcus pneumoniae (SPNE 9912); experiment: MIC by agar dilution, SPNE 9912; format: cell-based; details: Minimum Inhibitory Concentration, strain SPNE 9912; for MIC: Streptococcus pneumoniae
Description: (§1) The oxazolidinone antibacterial agents of this invention have useful activity against a variety of organisms. The in vitro activity of compounds of this invention can be assessed by standard testing procedures such as the determination of minimum inhibitory concentration (MIC) by agar dilution as described in “Approved Standard. Methods for Dilution Antimicrobial Susceptibility Tests for Bacteria That Grow Aerobically”, 3rd. ed., published 1993 by the National Committee for Clinical Laboratory Standards, Villanova, Pa., USA. The activity of compounds of this invention against Staphylococcus aureus, Staphylococcus epidermidis, Streptococcus pneumoniae, Streptococcus pyogens, Enterococcus faecalis, Moraxella catarrhalis and H. influenzae is shown in Table 1.

[2] = tested on: Enterococcus faecalis (EFAE 12712); experiment: MIC by agar dilution, EFAE 12712; format: cell-based; details: Minimum Inhibitory Concentration, strain EFAE 12712; for MIC: Enterococcus faecalis
Description: as §1

[3] = tested on: Staphylococcus epidermidis (SEPI 30593); experiment: MIC by agar dilution, SEPI 30593; format: cell-based; details: Minimum Inhibitory Concentration, strain SEPI 30593; for MIC: Staphylococcus epidermidis
Description: as §1

[4] = tested on: Enterococcus faecalis (EFAE 9217); experiment: MIC by agar dilution, EFAE 9217; format: cell-based; details: Minimum Inhibitory Concentration, strain EFAE 9217; for MIC: Enterococcus faecalis
Description: as §1

[5] = tested on: Moraxella catarrhalis (MCAT 30607); experiment: MIC by agar dilution, MCAT 30607; format: cell-based; details: Minimum Inhibitory Concentration, strain MCAT 30607; for MIC: Moraxella catarrhalis
Description: as §1

[6] = tested on: Staphylococcus aureus (SAUR 9213); experiment: MIC by agar dilution, SAUR 9213; format: cell-based; details: Minimum Inhibitory Concentration, strain SAUR 9213; for MIC: Staphylococcus aureus
Description: as §1

[7] = tested on: Streptococcus pyogens (SPYO 152); experiment: MIC by agar dilution, SPYO 152; format: cell-based; details: Minimum Inhibitory Concentration, strain SPYO 152; for MIC: Streptococcus
Description: as §1

[8] = tested on: H. influenzae (HINF 30063); experiment: MIC by agar dilution, HINF 30063; format: cell-based; details: Minimum Inhibitory Concentration, strain HINF 30063; for MIC: Haemophilus influenzae
Description: as §1

Compound | MIC [1] | MIC [2] | MIC [3] | MIC [4] | MIC [5] | MIC [6] | MIC [7] | MIC [8] | melting point | SPNE 9912 MIC [1] | EFAE 12712 MIC [2] | SEPI 30593 MIC [3] | EFAE 9217 MIC [4] | MCAT 30607 MIC [5] | SAUR 9213 MIC [6] | SPYO 152 MIC [7] | HINF 30063 MIC [8]
CCC(=S)NC[C@H]1CN(c2ccc(N3CCN(C(=O)CSC)CC3)c(F)c2)C(=O)O1 [EX 2, N-{[(5S)-3-(3-fluoro-4-{4-[2-(methylsulfanyl)acetyl]-1-piperazinyl}phenyl)-2-oxo-1,3-oxazolidin-5-yl]methyl}propanethioamide] | < 0.5 µg/mL | 1 µg/mL (≈ 2.2 µM) | 1 µg/mL (≈ 2.2 µM) | 1 µg/mL (≈ 2.2 µM) | 4 µg/mL (≈ 8.8 µM) | 2 µg/mL (≈ 4.4 µM) | 1 µg/mL (≈ 2.2 µM) | > 64 µg/mL | – | – | – | – | – | – | – | – | –
CCC(=S)NC[C@H]1CN(c2ccc(N3CCN(C(=O)CS(C)(=O)=O)CC3)c(F)c2)C(=O)O1 [EX 3, N-{ [(5S)-3-(3-fluoro-4-{4-[2-(methylsulfonyl)acetyl]-1-5 piperazinyl}phenyl]-2-oxo-1,3-oxazolidin-5-yl]methyl}propanethioamide] | 0.25 µg/mL (≈ 0.514 µM) | 1 µg/mL (≈ 2.06 µM) | 0.5 µg/mL (≈ 1.03 µM) | 0.5 µg/mL (≈ 1.03 µM) | 2 µg/mL (≈ 4.11 µM) | 2 µg/mL (≈ 4.11 µM) | 0.5 µg/mL (≈ 1.03 µM) | 8 µg/mL (≈ 16.4 µM) | – | – | – | – | – | – | – | – | –
CCC(=S)NC[C@H]1CN(c2ccc(N3CCN(C(C)=S)CC3)c(F)c2)C(=O)O1 [EX 4, N-({(5S)-3-[4-(4-ethanethiolyl-1-piperazinyl)-3-fluorophenyl]2-oxo-1,3-oxazolidin-5-yl}methyl)propanethioamide] | 0.125 µg/mL (≈ 0.294 µM) | 0.5 µg/mL (≈ 1.18 µM) | 0.25 µg/mL (≈ 0.589 µM) | 0.5 µg/mL (≈ 1.18 µM) | 1 µg/mL (≈ 2.36 µM) | 0.5 µg/mL (≈ 1.18 µM) | 0.125 µg/mL (≈ 0.294 µM) | 1 µg/mL (≈ 2.36 µM) | 209 to 210 °C | – | – | – | – | – | – | – | –
CCC(=S)NC[C@H]1CN(c2ccc(N3CCN(C#N)CC3)c(F)c2)C(=O)O1 [EX 5, N-({(5S)-3-[4-(4-cyano-1-piperazinyl)-3-fluorophenyl]-2-oxo-1,3-oxazolidin-5-yl}methyl)propanethioamide] | 0.125 µg/mL (≈ 0.319 µM) | 0.25 µg/mL (≈ 0.639 µM) | 0.25 µg/mL (≈ 0.639 µM) | 0.25 µg/mL (≈ 0.639 µM) | 1 µg/mL (≈ 2.55 µM) | 0.25 µg/mL (≈ 0.639 µM) | 0.125 µg/mL (≈ 0.319 µM) | 2 µg/mL (≈ 5.11 µM) | 182 to 184 °C | – | – | – | – | – | – | – | –
CCC(=S)NC[C@H]1CN(c2ccc(N3CCN(C(=O)COC(=O)OCCOC)CC3)c(F)c2)C(=O)O1 [EX 7, N-({(5S)-3-(3-fuoro-4-{4-[2-[(2-methoxyethoxy)carbonyloxy]acetyl]-1-piperazinyl}phenyl)-2-oxo-1,3-oxazolidin-5-yl}methyl) propanethioamide] | 0.25 µg/mL (≈ 0.475 µM) | 2 µg/mL (≈ 3.8 µM) | 1 µg/mL (≈ 1.9 µM) | 2 µg/mL (≈ 3.8 µM) | 4 µg/mL (≈ 7.6 µM) | 2 µg/mL (≈ 3.8 µM) | 0.25 µg/mL (≈ 0.475 µM) | 4 µg/mL (≈ 7.6 µM) | 150 to 151 °C | – | – | – | – | – | – | – | –
CCC(=S)NC[C@H]1CN(c2ccc(N3CCN(C(=O)[C@@H](O)COC)CC3)c(F)c2)C(=O)O1 [EX 8, N-[((5S)-3-{3-fluoro-4-[4-((2S)-2-hydroxy-3-methoxypropanoyl)-1-piperazinyl]phenyl}-2-oxo-1,3-oxazolidin-5-yl)methyl]propanethioamide] | 0.5 µg/mL (≈ 1.07 µM) | 2 µg/mL (≈ 4.27 µM) | 1 µg/mL (≈ 2.13 µM) | 1 µg/mL (≈ 2.13 µM) | 2 µg/mL (≈ 4.27 µM) | 2 µg/mL (≈ 4.27 µM) | 0.5 µg/mL (≈ 1.07 µM) | 16 µg/mL (≈ 34.1 µM) | 190 to 191 °C (dec.) | – | – | – | – | – | – | – | –
CCC(=S)NC[C@H]1CN(c2ccc(N3CCN(C(=O)[C@H](COC)OC)CC3)c(F)c2)C(=O)O1 [EX 9, N-[((5S)-3-{3-fluoro-4-[4-((2S)-2,3-dimethyoxypropanoyl)-1-piperazinyl]phenyl}-2-oxo-1,3-oxazolidin-5-yl)methyl]propanethioamide] | – | – | – | – | – | – | – | – | – | 1 µg/mL | 4 µg/mL | 2 µg/mL | 2 µg/mL | 4 µg/mL | 4 µg/mL | 1 µg/mL | 32 µg/mL
CCC(=S)NC[C@H]1CN(c2ccc(N3CCN(C(=O)C(CO)OC)CC3)c(F)c2)C(=O)O1 (stereo partly drawn) [EX 10, N-[((5S)-3-{3-fluoro-4-[4-((2S)-3-hydroxy-2-methyoxypropanoyl)-1-piperazinyl]phenyl}-2-oxo-1,3-oxazolidin-5-yl)methyl]propanethioamide] | 1 µg/mL (≈ 2.13 µM) | 2 µg/mL (≈ 4.27 µM) | 2 µg/mL (≈ 4.27 µM) | 1 µg/mL (≈ 2.13 µM) | 4 µg/mL (≈ 8.54 µM) | 4 µg/mL (≈ 8.54 µM) | 1 µg/mL (≈ 2.13 µM) | 16 µg/mL (≈ 34.1 µM) | – | – | – | – | – | – | – | – | –
CCC(=S)NC[C@H]1CN(c2ccc(N3CCN(C(=O)C(C)=O)CC3)c(F)c2)C(=O)O1 [EX 12, N-({(5S)-3-[3-fluoro-4-(4-pyruvoyl-1-piperazinyl)phenyl]-2-oxo-1,3-oxazolidin-5-yl}methyl)propanethioamide] | 0.5 µg/mL (≈ 1.15 µM) | 1 µg/mL (≈ 2.29 µM) | 1 µg/mL (≈ 2.29 µM) | 1 µg/mL (≈ 2.29 µM) | 2 µg/mL (≈ 4.58 µM) | 2 µg/mL (≈ 4.58 µM) | 0.5 µg/mL (≈ 1.15 µM) | 8 µg/mL (≈ 18.3 µM) | 173 to 175 °C (dec.) | – | – | – | – | – | – | – | –
CCC(=S)NC[C@H]1CN(c2ccc(N3CCN(C(=O)CCO)CC3)c(F)c2)C(=O)O1 [EX 13] | 0.5 µg/mL (≈ 1.14 µM) | 1 µg/mL (≈ 2.28 µM) | 1 µg/mL (≈ 2.28 µM) | 1 µg/mL (≈ 2.28 µM) | 2 µg/mL (≈ 4.56 µM) | 2 µg/mL (≈ 4.56 µM) | 0.5 µg/mL (≈ 1.14 µM) | 8 µg/mL (≈ 18.2 µM) | – | – | – | – | – | – | – | – | –
CCC(=S)NC[C@H]1CN(c2ccc(N3CCN(C(=O)C4(O)CC4)CC3)c(F)c2)C(=O)O1 [EX 14, N-{[(5S)-3-(3-fluoro-4-{4-[(1-hydroxycyclopropyl)carbonyl]-1-piperazinyl}phenyl)-2-oxo-1,3-oxazolidin-5-yl]methyl}propanethioamide] | 0.5 µg/mL (≈ 1.11 µM) | 2 µg/mL (≈ 4.44 µM) | 1 µg/mL (≈ 2.22 µM) | 1 µg/mL (≈ 2.22 µM) | 2 µg/mL (≈ 4.44 µM) | 4 µg/mL (≈ 8.88 µM) | 1 µg/mL (≈ 2.22 µM) | 32 µg/mL (≈ 71 µM) | 185 to 186 °C (dec.) | – | – | – | – | – | – | – | –
CCC(=S)NC[C@H]1CN(c2ccc(N3CCN(C(=O)COc4ccccc4)CC3)c(F)c2)C(=O)O1 [EX 15, N-[((5S)-3-{3-fluoro-4-[4-(2-phenoxyacetyl)-1-piperazinyl]phenyl}-2-oxo-1,3-oxazolidin-5-yl)methyl]propanethioamide] | 0.25 µg/mL (≈ 0.499 µM) | 1 µg/mL (≈ 2 µM) | 0.5 µg/mL (≈ 0.999 µM) | 0.5 µg/mL (≈ 0.999 µM) | 2 µg/mL (≈ 4 µM) | 2 µg/mL (≈ 4 µM) | 0.5 µg/mL (≈ 0.999 µM) | 32 µg/mL (≈ 63.9 µM) | 171 to 172 °C | – | – | – | – | – | – | – | –
CCC(=S)NC[C@H]1CN(c2ccc(N3CCN(C(=O)C(C)(CO)CO)CC3)c(F)c2)C(=O)O1 [EX 18, N-{[(5S)-3-(3-fluoro-4-{4-[3-hydroxy-2-(hydroxymethyl)-2-mnethylpropanoyl]-1-piperazinyl}phenyl)-2-oxo-1,3-oxazolidin-5-yl]methyl}propanethioamide] | – | – | – | – | – | – | – | – | – | 0.5 µg/mL | 2 µg/mL | 1 µg/mL | 2 µg/mL | 4 µg/mL | 4 µg/mL | 1 µg/mL | 32 µg/mL
CCC(=S)NC[C@H]1CN(c2ccc(N3CCN(C(=O)[C@H](O)c4ccccc4)CC3)c(F)c2)C(=O)O1 [EX 21, N-[((5S)-3-{3-fluoro-4-[4-((2R)-2-hydroxy-2-phenylacetyl)-1-piperazinyl]phenyl}-2-oxo-1,3-oxazolidin-5-yl)methyl]propanethioamide] | 1 µg/mL (≈ 2 µM) | 2 µg/mL (≈ 4 µM) | 1 µg/mL (≈ 2 µM) | 2 µg/mL (≈ 4 µM) | 4 µg/mL (≈ 7.99 µM) | 4 µg/mL (≈ 7.99 µM) | 2 µg/mL (≈ 4 µM) | 64 µg/mL (≈ 128 µM) | – | – | – | – | – | – | – | – | –
CCC(=S)NC[C@H]1CN(c2ccc(N3CCN(C(=O)[C@@H](OC(C)=O)c4ccccc4)CC3)c(F)c2)C(=O)O1 [EX 22, N-[((5S)-3-{3-fluoro-4-[4-((2S)-2-acetoxy-2-phenylacetyl)-1-piperazinyl]phenyl}-2-oxo-1,3-oxazolidin-5-yl)methyl]propanethioamide] | 2 µg/mL (≈ 3.69 µM) | 4 µg/mL (≈ 7.37 µM) | 4 µg/mL (≈ 7.37 µM) | 4 µg/mL (≈ 7.37 µM) | 8 µg/mL (≈ 14.7 µM) | 8 µg/mL (≈ 14.7 µM) | 4 µg/mL (≈ 7.37 µM) | > 64 µg/mL | – | – | – | – | – | – | – | – | –
N{[(5S)-3-(3-fluoro-4-{4-[2-(methylsulfinyl)acetyl]-1-piperazinyl}phenyl)-2-oxo-1,3-oxazolidin-5-yl]methyl }propanethioamide [EX 1] | – | – | – | – | – | – | – | – | – | .05 µg/mL | 2 µg/mL | 1 µg/mL | 1 µg/mL | 8 µg/mL | 4 µg/mL | 2 µg/mL | 8 µg/mL
